Key:
[1] = test system: Pseudomonas aeruginosa UI-18: Wild-type (PA-7); experiment: MIC determination (CLSI), strain PA-7; assay type: cell-based; conditions: strain PA-7, unit assumed
Method in brief: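 Strain tested was P. aeruginosa UI-18, a wild-type isolate labelled PA-7. Minimum inhibitory concentrations followed CLSI dilution methodology for aerobically growing bacteria (M7-A7, M100-S18).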

[2] = test system: Escherichia coli EC-1: VOGEL, mouse virulent; experiment: MIC determination (CLSI), strain EC-1; assay type: cell-based; conditions: strain EC-1, unit assumed
Method in brief: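 The mouse-virulent VOGEL isolate of E. coli, EC-1, served as test organism. Minimum inhibitory concentration was measured by CLSI dilution methodology (M7-A7; M100-S18 standards).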

[3] = generated in the same manner as in Table 4

| Structure (SMILES) | PA-7 (MIC) [1] | EC-1 (MIC) [2] | PA-7 (MIC) [1, 3] | EC-1 (MIC) [2, 3] |
| --- | --- | --- | --- | --- |
| CC(CCn1ccc(-c2ccc(OCCO)c(Cl)c2Cl)cc1=O)(C(=O)NO)S(C)(=O)=O (stereo not shown) [Example 234, 4-{4-[2,3-dichloro-4-(2-hydroxyethoxy)phenyl]-2-oxopyridin-1(2H)-yl}-N-hydroxy-2-methyl-2-(methylsulfonyl)butanamide] | 32 µg/mL | 64 µg/mL | – | – |
| CC(CCn1ccc(-c2cccc(F)c2Cl)cc1=O)(C(=O)NO)S(C)(=O)=O (stereo not shown) [Example 157, 4-[4-(2-chloro-3-fluorophenyl)-2-oxopyridin-1(2H)-yl]-N-hydroxy-2-methyl-2-(methylsulfonyl)butanamide] | – | – | 2 µg/mL | 4 µg/mL |
| C[C@@](CCn1ccc(-c2ccc(-c3ncc[nH]3)cc2)cc1=O)(C(=O)NO)S(C)(=O)=O [Example 367, (2R)-N-hydroxy-4-{4-[4-(1H-imidazol-2-yl)phenyl]-2-oxopyridin-1(2H)-yl}-2-methyl-2-(methylsulfonyl)butanamide] | > 64 µg/mL | 8 µg/mL | – | – |
| CC(CCn1ccc(-c2ccc(C#N)c(F)c2)cc1=O)(C(=O)NO)S(C)(=O)=O (stereo not shown) [Example 207, 4-[4-(4-cyano-3-fluorophenyl)-2-oxopyridin-1(2H)-yl]-N-hydroxy-2-methyl-2-(methylsulfonyl)butanamide] | 16 µg/mL | 16 µg/mL | – | – |
| CC(CCn1ccc(-c2ccc(OCCCO)cc2F)cc1=O)(C(=O)NO)S(C)(=O)=O (stereo not shown) [Example 250, 4-{4-[2-fluoro-4-(3-hydroxypropoxy)phenyl]-2-oxopyridin-1(2H)-yl}-N-hydroxy-2-methyl-2-(methylsulfonyl)butanamide] | 4 µg/mL | 2 µg/mL | – | – |
| CCS(=O)(=O)c1ccc(-c2ccn(CCC(C)(C(=O)NO)S(C)(=O)=O)c(=O)c2)cc1 (stereo not shown) [Example 136, 4-{4-[4-(ethylsulfonyl)phenyl]-2-oxopyridin-1(2H)-yl}-N-hydroxy-2-methyl-2-(methylsulfonyl)butanamide] | – | – | 64 µg/mL | > 64 µg/mL |
| C[C@@](CCn1ccc(-c2ccc(OCC#N)cc2)cc1=O)(C(=O)NO)S(C)(=O)=O [Example 333, (2R)-4-{4-[4-(cyanomethoxy)phenyl]-2-oxopyridin-1(2H)-yl}-N-hydroxy-2-methyl-2-(methylsulfonyl)butanamide] | 8 µg/mL | 16 µg/mL | – | – |
| CC(CCn1ccc(-c2ccc(C(F)(F)CO)cc2)cc1=O)(C(=O)NO)S(C)(=O)=O (stereo not shown) [Example 69, 4-{4-[4-(1,1-difluoro-2-hydroxyethyl)phenyl]-2-oxopyridin-1(2H)-yl}-N-hydroxy-2-methyl-2-(methylsulfonyl)butanamide] | – | – | 16 µg/mL | 4 µg/mL |
| CC(CCn1ccc(-c2ccc3ncccc3c2)cc1=O)(C(=O)NO)S(C)(=O)=O (stereo not shown) [Example 254] | 4 µg/mL | 4 µg/mL | – | – |
| CC(CCn1ccc(-c2ccc(OCCCN3CCOCC3)c(F)c2)cc1=O)(C(=O)NO)S(C)(=O)=O (stereo not shown) [Example 223, 4-{4-[3-fluoro-4-(3-morpholin-4-ylpropoxy)phenyl]-2-oxopyridin-1(2H)-yl}-N-hydroxy-2-methyl-2-(methylsulfonyl)butanamide] | 8 µg/mL | 4 µg/mL | – | – |
| COCCc1cccc(-c2ccn(CC[C@](C)(C(=O)NO)S(C)(=O)=O)c(=O)c2)c1 [Example 470] | 32 µg/mL | 16 µg/mL | – | – |
| CC(C)Oc1ncccc1-c1ccn(CCC(C)(C(=O)NO)S(C)(=O)=O)c(=O)c1 (stereo not shown) [Example 168, N-hydroxy-4-(2-isopropoxy-2′-oxo-3,4′-bipyridin-1′(2′H)-yl)-2-methyl-2-(methylsulfonyl)butanamide] | – | – | > 64 µg/mL | > 64 µg/mL |
| CC(CCn1ccc(-c2ccc(OCCCN3CCS(=O)(=O)CC3)cc2)cc1=O)(C(=O)NO)S(C)(=O)=O (stereo not shown) [Example 82, 4-[4-{4-[3-(1,1-dioxidothiomorpholin-4-yl)propoxy]phenyl}-2-oxopyridin-1(2H)-yl]-N-hydroxy-2-methyl-2-(methylsulfonyl)butanamide] | – | – | 32 µg/mL | 8 µg/mL |
| Cc1cc(OCCCCO)ccc1-c1ccn(CCC(C)(C(=O)NO)S(C)(=O)=O)c(=O)c1 (stereo not shown) [Example 243, N-hydroxy-4-{4-[4-(4-hydroxybutoxy)-2-methylphenyl]-2-oxopyridin-1(2H)-yl}-2-methyl-2-(methylsulfonyl)butanamide] | 8 µg/mL | 4 µg/mL | – | – |
| Cc1cc(-c2ccn(CC[C@](C)(C(=O)NO)S(C)(=O)=O)c(=O)c2)ccc1C#N [Example 467] | 2 µg/mL | 4 µg/mL | – | – |
| Cc1cc2cc(-c3ccn(CCC(C)(C(=O)NO)S(C)(=O)=O)c(=O)c3)ccc2[nH]1 (stereo not shown) [Example 256, N-hydroxy-2-methyl-4-[4-(2-methyl-1H-indol-5-yl)-2-oxopyridin-1(2H)-yl]-2-(methylsulfonyl)butanamide] | 4 µg/mL | 1 µg/mL | – | – |

| Structure (SMILES) | PA-7 (MIC) [1] | EC-1 (MIC) [2] | PA-7 (MIC) [1, 3] | EC-1 (MIC) [2, 3] |
| --- | --- | --- | --- | --- |
| CC(CCn1ccc(-c2cncc3ccccc23)cc1=O)(C(=O)NO)S(C)(=O)=O (stereo not shown) [Example 109, N-hydroxy-4-(4-isoquinolin-4-yl-2-oxopyridin-1(2H)-yl)-2-methyl-2-(methylsulfonyl)butanamide] | – | – | > 64 µg/mL | > 64 µg/mL |
| CC(CCn1ccc(-c2ccc(OCCCn3cncn3)c(Cl)c2Cl)cc1=O)(C(=O)NO)S(C)(=O)=O (stereo not shown) [Example 292, 4-[4-{2,3-dichloro-4-[3-(1H-1,2,4-triazol-1-yl)propoxy]phenyl}-2-oxopyridin-1(2H)-yl]-N-hydroxy-2-methyl-2-(methylsulfonyl)butanamide] | 16 µg/mL | 8 µg/mL | – | – |
| Cc1c(Cl)cccc1-c1ccn(CCC(C)(C(=O)NO)S(C)(=O)=O)c(=O)c1 (stereo not shown) [Example 266, 4-[4-(3-chloro-2-methylphenyl)-2-oxopyridin-1(2H)-yl]-N-hydroxy-2-methyl-2-(methylsulfonyl)butanamide] | 4 µg/mL | 4 µg/mL | – | – |
| CC(CCn1ccc(-c2cc(O)ccc2Cl)cc1=O)(C(=O)NO)S(C)(=O)=O (stereo not shown) [Example 204, 4-[4-(2-chloro-5-hydroxyphenyl)-2-oxopyridin-1(2H)-yl]-N-hydroxy-2-methyl-2-(methylsulfonyl)butanamide] | > 64 µg/mL | 64 µg/mL | – | – |
| C[C@@](CCn1ccc(-c2ccc(OCCC3CCN(C(=O)CO)CC3)cc2)cc1=O)(C(=O)NO)S(C)(=O)=O [Example 312, (2R)-4-[4-{4-[2-(1-glycoloylpiperidin-4-yl)ethoxy]phenyl}-2-oxopyridin-1(2H)-yl]-N-hydroxy-2-methyl-2-(methylsulfonyl)butanamide] | 4 µg/mL | 0.5 µg/mL | – | – |
| Cc1cc(-n2nccn2)ccc1-c1ccn(CC[C@](C)(C(=O)NO)S(C)(=O)=O)c(=O)c1 [Example 358, (2R)-N-hydroxy-2-methyl-2-(methylsulfonyl)-4-{4-[2-methyl-4-(2H-1,2,3-triazol-2-yl)phenyl]-2-oxopyridin-1(2H)-yl}butanamide] | 1 µg/mL | 0.25 µg/mL | – | – |
| COc1cccc(-c2ccn(CCC(C)(C(=O)NO)S(C)(=O)=O)c(=O)c2)c1 (stereo not shown) [Example 206, N-hydroxy-4-[4-(3-methoxyphenyl)-2-oxopyridin-1(2H)-yl]-2-methyl-2-(methylsulfonyl)butanamide] | 4 µg/mL | 4 µg/mL | – | – |
| CC(O)Cc1ccc(-c2ccn(CCC(C)(C(=O)NO)S(C)(=O)=O)c(=O)c2)cc1 (stereo not shown) [Example 224, N-hydroxy-4-{4-[4-(2-hydroxypropyl)phenyl]-2-oxopyridin-1(2H)-yl}-2-methyl-2-(methylsulfonyl)butanamide] | 8 µg/mL | 32 µg/mL | – | – |
| CC(CCn1ccc(-c2cc(F)ccc2F)cc1=O)(C(=O)NO)S(C)(=O)=O (stereo not shown) [Example 196, 4-[4-(2,5-difluorophenyl)-2-oxopyridin-1(2H)-yl]-N-hydroxy-2-methyl-2-(methylsulfonyl)butanamide] | 4 µg/mL | 8 µg/mL | – | – |
| C[C@@](CCn1ccc(-c2ccc(-n3nccn3)cc2F)cc1=O)(C(=O)NO)S(C)(=O)=O [Example 372] | 2 µg/mL | 0.06 µg/mL | – | – |
| CC(CCn1ccc(-c2ccc(OCCCCO)c(Cl)c2)cc1=O)(C(=O)NO)S(C)(=O)=O (stereo not shown) [Example 238, 4-{4-[3-chloro-4-(4-hydroxybutoxy)phenyl]-2-oxopyridin-1(2H)-yl}-N-hydroxy-2-methyl-2-(methylsulfonyl)butanamide] | 4 µg/mL | 0.5 µg/mL | – | – |
| Cc1c(-c2ccn(CCC(C)(C(=O)NO)S(C)(=O)=O)c(=O)c2)cnn1-c1ccccc1 (stereo not shown) [Example 203, N-hydroxy-2-methyl-4-[4-(5-methyl-1-phenyl-1H-pyrazol-4-yl)-2-oxopyridin-1(2H)-yl]-2-(methylsulfonyl)butanamide] | > 64 µg/mL | 64 µg/mL | – | – |
| C[C@@](CCn1ccc(-c2cc(F)cc(Cl)c2Cl)cc1=O)(C(=O)NO)S(C)(=O)=O [Example 451, (2R)-4-[4-(2,3-dichloro-5-fluorophenyl)-2-oxopyridin-1(2H)-yl]-N-hydroxy-2-methyl-2-(methylsulfonyl)butanamide] | 4 µg/mL | 4 µg/mL | – | – |
| CC(CCn1ccc(-c2ccc(-c3ccc(S(N)(=O)=O)cc3)cc2)cc1=O)(C(=O)NO)S(C)(=O)=O (stereo not shown) [Example 278, 4-{4-[4′-(aminosulfonyl)biphenyl-4-yl]-2-oxopyridin-1(2H)-yl}-N-hydroxy-2-methyl-2-(methylsulfonyl)butanamide] | 16 µg/mL | 2 µg/mL | – | – |
| Cc1c(-c2cccc(Cl)c2Cl)ccn(CC[C@](C)(C(=O)NO)S(C)(=O)=O)c1=O [Example 414, (2R)-4-[4-(2,3-dichlorophenyl)-3-methyl-2-oxopyridin-1(2H)-yl]-N-hydroxy-2-methyl-2-(methylsulfonyl)butanamide] | 8 µg/mL | 2 µg/mL | – | – |
| CC(CCn1ccc(-c2ccc(Cl)c(F)c2)cc1=O)(C(=O)NO)S(C)(=O)=O (stereo not shown) [Example 142, 4-[4-(4-chloro-3-fluorophenyl)-2-oxopyridin-1(2H)-yl]-N-hydroxy-2-methyl-2-(methylsulfonyl)butanamide] | – | – | 1 µg/mL | 1 µg/mL |

— patent publication US8846933B2, “N-link hydroxamic acid derivatives useful as antibacterial agents” (Pfizer Inc., priority 2009, dated 2014)
